From publication PMC9386018, “A lymphatic-absorbed multi-targeted kinase inhibitor for myelofibrosis therapy” (Nature Communications, 2022)
“And” between values parts separate entries of the source, which are not always exact repeats. Identical values can stand only once.

Key:
[1] = system: GFP-positive MPL^W515L cells; experiment: MPL^W515L MF mouse model Study 2: GFP-positive cell frequencies; type: in vivo; details: Study 2, MPL^W515L mice, oral 400 mg kg^−1 daily, 14 d
Method: The human megakaryoblastic cell line, SET-2 (ATCC), was maintained in RPMI 1640 supplemented with 20% FBS and incubated for 16 h at 10^6 cells mL^−1 with LP-182 or vehicle (DMSO; dimethyl sulfoxide), then washed in ice-cold PBS, and collected for flow cytometry analysis. Single-cell suspensions of mouse spleen were prepared from MPL^W515L MF mice (below) in RPMI 1640 supplemented with 5% FCS. Red blood cells were lysed by ammonium chloride-mediated red cell lysis (RCL) buffer and passed through a nylon mesh, and then cells were counted. For intracellular phospho-protein staining, SET-2 or spleen cells were fixed and then permeabilized using BD Phospho-flow fixation buffer and Perm-Buffer III (BD biosciences) according to the manufacturer’s protocol. Intracellular phospho-protein staining was performed using fluorochrome-conjugated antibodies, pAKT (pS473)-Alexa Fluor 647 (MB89-61) or pERK1/2 (pT202/pY204)-Alexa Fluor 647 (20 A). […] Flow cytometry was performed on a FACS Fortessa (Becton, Dickinson and Co.) using FACSDiVa software, and data analyzed using FlowJo software (Tree Star). […]
Generation of the MPL^W515L mutant MF mouse model was similar to previously described methods. […] Development of MF was evaluated by spleen volumes using MRI beginning ~14 d following bone marrow transplantation (BMT) as outlined below, continuing weekly until end of the study. […]

[2] = biological target: MEK1 (Homo sapiens, UniProt Q02750); experiment: Target kinase 10-point inhibition assay, MEK1; type: biochemical; details: replicates
From the text: The average percent kinase inhibition from replicate data was ranked low to high, converted to a compatible identifier format, then input into Coral Human Kinome Visualization software for presentation analysis. […] Scaling of evolutionary distance for PI kinases is only relative and is based on literature analysis[62],[63]. Average percent kinome inhibition values from replicate data are supplied in Source Data file. […] Corrected data was normalized to vehicle treated control values, and dose response percent kinase activity was analyzed by non-linear regression for determination of IC50 values.

Chain of MEK1 (Q02750 whole entry): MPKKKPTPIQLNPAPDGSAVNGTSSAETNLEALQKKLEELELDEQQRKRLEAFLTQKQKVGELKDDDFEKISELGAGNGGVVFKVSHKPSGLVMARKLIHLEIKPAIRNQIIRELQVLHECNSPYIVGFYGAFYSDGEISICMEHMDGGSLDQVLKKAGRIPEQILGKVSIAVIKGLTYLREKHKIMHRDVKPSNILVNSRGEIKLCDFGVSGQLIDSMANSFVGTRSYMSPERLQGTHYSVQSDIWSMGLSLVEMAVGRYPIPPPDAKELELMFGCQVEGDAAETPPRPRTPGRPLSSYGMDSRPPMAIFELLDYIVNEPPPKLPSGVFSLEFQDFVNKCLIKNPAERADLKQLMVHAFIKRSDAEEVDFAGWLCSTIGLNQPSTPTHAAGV

SMILES: O=C(NOCCOCCOCCOCCC(=O)N1CCN(c2cnc3ccc(-c4cnc(Cl)c(NS(=O)(=O)c5ccc(F)cc5)c4)cc3n2)CC1)c1ccc(F)c(F)c1Nc1ccc(I)cc1F [LP-182, N-(2-(2-(2-(3-(4-(7-(6-chloro-5-((4-fluorophenyl)sulfonamido)pyridin-3-yl)quinoxalin-2-yl)piperazin-1-yl)-3-oxopropoxy)ethoxy)ethoxy)ethoxy)-3,4-difluoro-2-((2-fluoro-4-iodophenyl)amino)benzamide]
- GFP-positive MPL^W515L neutrophil frequency [1]: reduced
- activity at 0.000495 µM ([2]; MEK1, 0.495 nM): 91%
- Kinase Activity (%) ([2]; MEK1, 0.495 nM, 0.000495 µM): 94% and 100% (2×) and 98% (2×) and 87%
- activity at 0.00152 µM ([2]; MEK1, 1.52 nM): 89%
- Kinase Activity (%) ([2]; MEK1, 1.52 nM, 0.00152 µM): 94% (2×) and 102% (2×)
- activity at 0.00457 µM ([2]; MEK1, 4.57 nM): 92%
- Kinase Activity (%) ([2]; MEK1, 4.57 nM, 0.00457 µM): 77% and 86% and 84% and 81%
- Kinase Activity (%) ([2]; MEK1, 41.2 nM, 0.0412 µM): 47% and 49% and 69% and 72% and 79% and 86% and 76% and 73%
- Kinase Activity (%) ([2]; MEK1, 123 nM, 0.123 µM): 26% and 22% and 46% and 50% and 53% and 57% and 54% and 49%
- Kinase Activity (%) ([2]; MEK1, 1110 nM, 1.11 µM): 0% and 3% (3×) and 8% (2×) and 9% (2×) and 5% and 12%
- Kinase Activity (%) ([2]; MEK1, 3330 nM, 3.33 µM): -1% and 1% (2×) and 2% (2×) and 3% (3×) and 4% and 0%
- Kinase Activity (%) ([2]; MEK1, 10000 nM, 10 µM): 0% and -2% (2×) and 8% and 9% and 4% and 2% and -1% and 3% (2×)
- activity at 0.000495 µM ([2]; MEK1, concentration 0.495 nM): 90%
- Kinase Activity (%) ([2]; MEK1, concentration 0.495 nM, 0.000495 µM): 100% (2×) and 98% (2×)
- activity at 0.00152 µM ([2]; MEK1, concentration 1.52 nM): 99%
- Kinase Activity (%) ([2]; MEK1, concentration 1.52 nM, 0.00152 µM): 94% (2×) and 102% (2×)
- activity at 0.00457 µM ([2]; MEK1, concentration 4.57 nM): 95%
- activity at 0.0412 µM ([2]; MEK1, concentration 41.2 nM): 65%
- activity at 0.123 µM ([2]; MEK1, concentration 123 nM): 43%
- activity at […] ([2]; MEK1, concentration 370 nM): 15%
- Kinase Activity (%) ([2]; MEK1, concentration 1110 nM, 1.11 µM): 9% (2×) and 3% (3×) and 8% (2×)
- Kinase Activity (%) ([2]; MEK1, concentration 3330 nM, 3.33 µM): 2% (2×) and 1% (2×) and 3% (3×)
- Kinase Activity (%) ([2]; MEK1, concentration 10000 nM, 10 µM): 3% (2×) and -2% (2×)
